In ChEMBL document CHEMBL5252589, “Bioactive Piperazic Acid-Bearing Cyclodepsipeptides, Lydiamycins E-H, from an Endophytic Streptomyces sp. Associated with Cinnamomum cassia” (J Nat Prod, 2023):
≈ marks a conversion by molar mass, not a printed value. Calls of active or inactive are those of the source. The rule behind the calls is not given here.

Legend:
[1] = test system: PANC-1; assay: Cytotoxicity against human PANC-1 cells assessed as inhibition of cell growth incubated for 72 hrs by MTT assay; assay type: functional, cell-based; settings: PANC-1, 72 h
[2] = test system: PANC-1; assay: Antimetastatic activity in human PANC-1 cells assessed as suppression of cell invasion at 40 to 80 uM incubated for 24 hrs by crystal violet staining based transwell assay; assay type: functional; settings: dose 40-80 µM
[3] = test system: Mycobacterium tuberculosis; assay: Antibacterial activity against Mycobacterium tuberculosis H37Rv ATCC 27294 assessed as inhibition of bacterial growth; assay type: functional
[4] = test system: PANC-1; assay: Antimetastatic activity in human PANC-1 cells assessed as suppression of cell migration incubated for 24 to 48 hrs by inverted microscope based scratch wound healing assay; assay type: functional; settings: dose 40-80 µM, time 24-48 hrs
[5] = test system: Mycobacterium tuberculosis; assay: Antibacterial activity against Mycobacterium tuberculosis H37Rv; assay type: functional
[6] = test system: Mycobacterium tuberculosis; assay: Antibacterial activity against Mycobacterium tuberculosis mc2 6230; assay type: functional
[7] = test system: PANC-1; assay: Antimetastatic activity in human PANC-1 cells assessed as inhibition of cell migration at 40 uM incubated for 48 hrs by inverted microscope based scratch wound healing assay relative to control; assay type: functional
[8] = test system: PANC-1; assay: Antimetastatic activity in human PANC-1 cells assessed as inhibition of cell migration at 80 uM incubated for 48 hrs by inverted microscope based scratch wound healing assay relative to control; assay type: functional
[9] = test system: PANC-1; assay: Antimetastatic activity in human PANC-1 cells assessed as inhibition of cell migration at 80 uM incubated for 24 hrs by inverted microscope based scratch wound healing assay relative to control; assay type: functional
[10] = test system: PANC-1; assay: Antimetastatic activity in human PANC-1 cells assessed as inhibition of cell migration at 40 uM incubated for 24 hrs by inverted microscope based scratch wound healing assay relative to control; assay type: functional

Row | SMILES | IC50 [1] | Activity [2] | MIC [3] | Activity [4] | MIC50 [5] | MIC50 [6] | inhibition at 40 µM [7] | inhibition at 80 µM [8] | inhibition at 80 µM [9] | inhibition at 40 µM [10]
1 | CC(C)C[C@H]1NC(=O)[C@@H](NC(=O)[C@@H]2CCC=NN2C(=O)CCC(=O)O)COC(=O)[C@@H]2CCCNN2C(=O)[C@H](C)NC1=O | > 100 µM | Active | > 20 µg/mL | Dose-Dependent Effect |  |  |  |  |  | 
2 | CCCC[C@H](CC(=O)N1N=CCC[C@H]1C(=O)N[C@H]1COC(=O)[C@@H]2CCCNN2C(=O)[C@H](C)NC(=O)[C@@H](CC(C)C)NC1=O)C(=O)O | > 100 µM | Active | > 20 µg/mL | Dose-Dependent Effect |  |  |  |  |  | 
3 | CC(C)C[C@H]1NC(=O)[C@@H](NC(=O)[C@@H]2CCC=NN2)COC(=O)[C@@H]2CCCNN2C(=O)[C@H](C)NC1=O | > 100 µM | Active | > 20 µg/mL | Dose-Dependent Effect |  |  |  |  |  | 
4 | CCCCC[C@H](CC(=O)N1N=CCC[C@H]1C(=O)N[C@H]1COC(=O)[C@@H]2CCCNN2C(=O)[C@H](C)NC(=O)[C@@H](CC(C)C)NC1=O)C(=O)O | > 100 µM | Active | > 20 µg/mL |  | 12.5 µg/mL (≈ 18.8 µM) | 31 µg/mL (≈ 46.7 µM) | 11% | 49% | 45% | 36%
5 | CCCCC[C@H](CC(=O)N1N=C[C@H](O)C[C@H]1C(=O)N[C@H]1COC(=O)[C@@H]2CCCNN2C(=O)[C@H](C)NC(=O)[C@@H](CC(C)C)NC1=O)C(=O)O | > 100 µM | Active | > 20 µg/mL |  |  |  | 11% | 26% | 19% | 11%
